Laboratory results: patent US10513518B2, “Inhibitors of the renal outer medullary potassium channel” (Merck Sharp & Dohme Corp., priority 2015, dated 2019)

Target: hROMK (hKir1.1) (Homo sapiens (Human), UniProt P48048)
Test: Thallium Flux Assay (ROMK channel functional thallium flux assay, FLIPR-Tetra)
Assay type: cell-based
Settings: HEK293 cells stably expressing hROMK (hKir1.1); 30 min incubation with test compound
Method: The following Thallium Flux Assay was performed on each of the final product compounds in the Examples.
HEK293 cells stably expressing hROMK (hKir1.1) were grown at 37° C. in a 10% CO2 humidified incubator in complete growth media: Dulbecco's Modified Eagle Medium supplemented with non-essential amino acids, Penicillin/Streptomycin/Glutamine, G418 and FBS. At >80% confluency, aspirate the media from the flask and rinse with 10 mL Calcium/Magnesium-free PBS. 5 mL of 1× trypsin (prepared in Ca/Mg Free PBS) was added to a T-225 flask and the flask was returned to the 37° C./CO2 incubator for 2-3 minutes. The cell was dislodged by genitly banging the side of the flask by hand. The cells were titrated completely and then the cells were transferred to 25 mL complete media. The cells were centrifuged at 1,500 rpm for 6 min followed by resuspension in complete growth media and cell concentration was determined. 4E6 cells/T-225 flask attained >80% confluency in 4 days. Under ideal growth conditions and appropriate tissue culture practices, this cell line was stable for 40-45 passages.
FluxOR Kit Components (Invitrogen F10017)
• FluxOR™ Reagent (Component A) • FluxOR™ Assay Buffer (Component B)—10× Concentrate • PowerLoad™ Concentrate (Component C)—100× Concentrate • Probenecid (Component D)—Lyophilized sample is kept at −20° C. Water soluble, 100× after solubilization in 1 mL water. Store at 4° C. • FluxOR™ Chloride-free Buffer (Component E)—5× Concentrate • Potassium sulfate (K2SO4) Concentrate (Component F)—125 mM in water. Store at 4° C. • Thallium sulfate (TI2SO4) Concentrate (Component G)—50 mM in water. Store at 4° C. • DMSO (dimethyl sulfoxide, Component H)—1 mL (100%) Reagent Preparation: FluxOR Working Solutions • 1000× FluxOR™ Reagent: Reconstitute a vial of component A in 100 μl DMSO; Mix well; Store 10 μl aliquots at −20° C. • 1× FluxOR™ Assay Buffer: Dilute Component B 10-fold with water; Adjust pH to 7.4 with Hepes/NaOH; Filter and store at 4° C. • Probenecid/Assay Buffer: 100 mL of 1× FluxOR™ Assay Buffer; 1 mL of reconstituted component D; Store at 4° C. • Loading Buffer (per microplate): 10 μl 1000× FluxOR™ Reagent; 100 μl component C; 10 mL Probenecid/Assay Buffer • Compound Buffer (per microplate): 20 mL Probenecid/Assay Buffer; 0.3 mM ouabain (10 mM ouabain in water can be stored in amber bottle/aluminum foil at room temperature); Test compound • 1× FluxOR™ Chloride-Free Buffer: Prepare 1× working solution in water. Can be stored at room temperature • Stimulant Buffer (prepared at 5× final concentration in 1× FluxOR™ Chloride-Free Buffer): 7.5 mM Thallium sulfate and 0.75 mM Potassium sulfate (to give a final assay concentration of 3 mM Thallium/0.3 mM Potassium). Store at 4° C. when not in use. If kept sterile, this solution is good for months. Assay Protocol—
The ROMK channel functional thallium flux assay was performed in 384 wells, using the FLIPR-Tetra instrument. HEK-hKir1.1 cells were seeded in Poly-D-Lysine microplates and kept in a 37° C.-10% CO2 incubator overnight. On the day of the experiment, the growth media was replaced with the FluxOR™ reagent loading buffer and incubated, protected from light, at ambient temperature (23-25° C.) for 90 min. The loading buffer was replaced with assay buffer±test compound followed by 30 min incubation at ambient temperature, where the Thallium/Potassium stimulant was added to the microplate.
1. Seed HEK-hKir1.1 cells (50 μl at 20,000 cells/well) in 384-well PDL coated Microplates
2. Allow cells to adhere overnight in humidified 37° C./10% CO2 incubator
3. Completely remove cell growth media from microplate and replace with 25 μl loading buffer
4. Incubate Microplate at room temperature, protected form light, for 90 min
5. Remove loading buffer and replace with 25 μl 1× Assay Buffer±test compound.
6. Incubate microplate at room temperature, protected from light, for 30 min
7. At FLIPR-Tetra 384: Add stimulant (Thallium/Potassium) solution to microplate and monitor fluorescence. […]

Sequence of hROMK (hKir1.1) (P48048 whole entry): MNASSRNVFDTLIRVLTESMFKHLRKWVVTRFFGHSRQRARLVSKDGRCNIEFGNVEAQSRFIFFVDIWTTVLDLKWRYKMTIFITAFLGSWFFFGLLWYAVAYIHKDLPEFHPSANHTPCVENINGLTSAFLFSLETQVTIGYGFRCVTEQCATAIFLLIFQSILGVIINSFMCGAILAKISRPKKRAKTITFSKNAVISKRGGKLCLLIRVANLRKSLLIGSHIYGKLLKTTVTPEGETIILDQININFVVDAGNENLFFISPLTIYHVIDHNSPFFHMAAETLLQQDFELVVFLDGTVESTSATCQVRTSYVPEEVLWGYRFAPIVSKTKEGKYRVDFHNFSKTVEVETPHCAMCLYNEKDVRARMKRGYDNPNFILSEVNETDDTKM

| Molecule | IC50 [nM] |
| --- | --- |
| CC1=C(N2CCC3(CCCN(CC(O)c4ccc(-n5cnnn5)nc4C)CC3)C2=O)CCC1=O (single isomer, unassigned) [Example 3A, 8-(2-hydroxy-2-(2-methyl-6-(1H-tetrazol-1-yl)pyridin-3-yl)ethyl)-2-(2-methyl-3-oxocyclopent-1-en-1-yl)-2,8-diazaspiro[4.6]undecan-1-one] | 323 |
| CC1=C(N2CCC3(CCN(C[C@H](O)c4ccc5c(c4C)COC5=O)CC3)C2=O)CCC1=O [Example 19] | 62.2 |
| Cc1nc(-n2cnnn2)ccc1C(O)CN1CCC2(CC1)CC(=O)N(C1=CS(=O)(=O)CC1)C2 (centres unmarked) [Example 17] | 598 |
| Cc1c([C@@H](O)CN2CCC3(CC2)CCN(C2=CC(=O)CC2)C3=O)ccc2c1COC2=O [Example 11] | 122 |
| 8(1R,3r,5S)-8-(2-hydroxy-2-(2-methyl-6-(1H-tetrazol-1-yl)60icycle60-3-yl)ethyl)-1′-(2-methyl-3-oxocyclopent-1-en-1-yl)-8-azaspiro[bicyclo[3.2.1]octane-3,3′-pyrrolidin]-2′-one [Example 5] | 49.1 |
| O=C1C=C(N2CCC3(CCN(CC(O)c4ccc(-n5cnnn5)cc4F)CC3)C2=O)CC1 (centres unmarked) [Example 37] | 461 |
| CC1=C(N2CCC3(CCN(CC(O)c4cnc(-n5cnnn5)c(F)c4)CC3)C2=O)CCC1=O (centres unmarked) [Example 29] | 674 |
| CC1=C(N2CCC3(CC4CCC(C3)N4CC(O)c3ccc(-n4cnnn4)cn3)C2=O)CCC1=O [Example 6, (1R,3r,5S)-8-(2-(5-(1H-tetrazol-1-yl)pyridin-2-yl)-2-hydroxyethyl)-1′-(2-methyl-3-oxocyclopent-1-en-1-yl)-8-azaspiro[bicyclo[3.2.1]octane-3,3′-pyrrolidin]-2′-one] | 294 |
| Cc1nc(-n2cnnn2)ccc1C(O)CN1CCC2(CC1)CCN(C1=CC(=O)CC1)C2=O (centres unmarked) [Example 14] | 87 |
| O=C1C=C(N2CCCC3(CCN(CC(O)c4ccc(-n5cnnn5)cn4)CC3)C2=O)CC1 (centres unmarked) [Example 42] | 59.7 |
| CC1=C(N2CCCC3(CCN(CC(O)c4ccc(-n5cnnn5)nc4C)CC3)C2=O)CCC1=O (centres unmarked) [Example 32] | 647 |
| Cc1c([C@@H](O)CN2CCC3(CC2)CCN(C2=CS(=O)(=O)CC2)C3=O)ccc2c1COC2=O [Example 16] | 276 |
| Cc1nc(-n2cnnn2)ccc1C(O)CN1CCC2(CC1)CCN(C1=CS(=O)(=O)CC1)C2=O (single isomer, unassigned) [Example 1, 2-(1,1-dioxido-4,5-dihydrothiophen-3-yl)-8-(2-hydroxy-2-(2-methyl-6-(1H-tetrazol-1-yl)pyridin-3-yl)ethyl)-2,8-diazaspiro[4.5]decan-1-one] | 640 |
| O=C1C=C(N2CCC3(CCN(CC(O)c4cnc(-n5cnnn5)c(F)c4)CC3)C2=O)CC1 (centres unmarked) [Example 30] | 415 |
| Cc1c([C@@H](O)CN2CCC3(CCCN(C4=CC(=O)CC4)C3=O)CC2)ccc2c1COC2=O [Example 34] | 10.9 |
| (1R,3R,5S)-8-((R)-2-hydroxy-2-(4-methyl-1-oxo-1,3-dihydroisobenzofuran-5-yl)ethyl)-1′-(2-methyl-3-oxocyclopent-1-en-1-yl)-8-azaspiro[bicyclo[3.2.1] octane-3,3′-pyrrolidin]-2′-one [Example 4] | 474 |
| CC1=C(N2CCC3(CCN(C[C@H](O)c4ccc(-n5cnnn5)nc4)CC3)C2=O)CCC1=O [Example 21] | 118 |
| CC1=C(N2CCC3(CCN(CC(O)c4ccc(-n5cnnn5)cc4F)CC3)C2=O)CCC1=O (centres unmarked) [Example 36] | 531 |
| O=C1C=C(N2CCC3(CCN(C[C@H](O)c4ccc(-n5cnnn5)nc4)CC3)C2=O)CC1 [Example 23] | 187 |
| CC1=C(N2CCOC3(CCN(C[C@H](O)c4ccc5c(c4C)COC5=O)CC3)C2=O)CCC1=O [Example 45] | 892 |
| CC1=C(N2CC3(CCN(C[C@H](O)c4ccc5c(c4C)COC5=O)CC3)CC2=O)CCC1=O [Example 20] | 497 |

| Molecule | IC50 [nM] |
| --- | --- |
| Cc1c([C@@H](O)CN2CCC3(CC2)CC(=O)N(C2=CC(=O)CC2)C3)ccc2c1COC2=O [Example 12] | 521 |
| CC1=C(N2CCC3(CCCN(CC(O)c4ccc(-n5cnnn5)nc4C)CC3)C2=O)CCC1=O (single isomer, unassigned) [Example 3B, 8-(2-hydroxy-2-(2-methyl-6-(1H-tetrazol-1-yl)pyridin-3-yl)ethyl)-2-(2-methyl-3-oxocyclopent-1-en-1-yl)-2,8-diazaspiro[4.6]undecan-1-one] | 86.3 |
| CC1=C(N2CCC3(CCN(CC(O)c4ncc(-n5cnnn5)cc4C)CC3)C2=O)CCC1=O (centres unmarked) [Example 24] | 386 |
| CC1=C(N2CCC3(CCN(CC(O)c4cnc(-n5cnnn5)c(F)c4)CC3)C2=O)CCC1=O (centres unmarked) [Example 28] | 295 |
| CC1=C(N2CCC3(CCCN(C[C@H](O)c4ccc5c(c4C)COC5=O)CC3)C2=O)CCC1=O (some centres unmarked) [Example 39] | 15.1 |
| Cc1nc(-n2cnnn2)ccc1C(O)CN1CCC2(CCCN(C3=CC(=O)CC3)C2=O)CC1 (centres unmarked) [Example 33] | 17.3 |
| CC1=C(N2CCC3(CCN(CC(O)c4ccc(-n5cnnn5)cc4C)CC3)C2=O)CCC1=O (centres unmarked) [Example 26] | 87.1 |
| CC1=C(N2CCC3(CCN(CC(O)c4ncc(-n5cnnn5)cc4C)CC3)C2=O)CCC1=O (centres unmarked) [Example 25] | 347 |
| CC1=C(N2CCC3(CCN(CC(O)c4ccc(-n5cnnn5)nc4C)CC3)C2=O)CCC1=O (centres unmarked) [Example 18] | 47.3 |
| CC1=C(N2CCC3(CCCN(CC(O)c4ccc(-n5cnnn5)nn4)CC3)C2=O)CCC1=O (centres unmarked) [Example 43] | 568 |
| O=C1C=C(N2CCC3(CCN(CC(O)c4cnc(-n5cnnn5)c(F)c4)CC3)C2=O)CC1 (centres unmarked) [Example 31] | 751 |
| CC1=C(N2CCC3(CCN(CC(O)c4ccc(-n5cnnn5)cc4C)CC3)C2=O)CCC1=O (centres unmarked) [Example 27] | 74.5 |
| CC1=C(N2CCC3(CCCN(C[C@H](O)c4ccc5c(c4C)COC5=O)CC3)C2=O)CCC1=O (some centres unmarked) [Example 40] | 71.5 |
| O=C1N(C2=CS(=O)(=O)CC2)CCC12CCN(C[C@H](O)c1ccc(-n3cnnn3)nc1)CC2 [Example 22] | 114 |
| Cc1nc(-n2cnnn2)ccc1C(O)CN1CCC2(CCCN(C3=CS(=O)(=O)CC3)C2=O)CC1 (centres unmarked) [Example 38] | 88.7 |
| Cc1cc(-n2cnnn2)ccc1C(O)CN1CCC2(CC1)CCN(C1=CC(=O)CC1)C2=O (centres unmarked) [Example 35] | 196 |
| CC1=C(N2CCC3(CCN(CC(O)c4ccc(-n5cnnn5)nn4)CC3)C2=O)CCC1=O (centres unmarked) [Example 44] | 100 |
| Cc1cc(-n2cnnn2)ccc1C(O)CN1CCC2(CCCN(C3=CC(=O)CC3)C2=O)CC1 (centres unmarked) [Example 41] | 10.7 |
| Cc1nc(-n2cnnn2)ccc1C(O)CN1CCC2(CC1)CC(=O)N(C1=CC(=O)CC1)C2 (centres unmarked) [Example 13] | 356 |
| Cc1nc(-n2cnnn2)ccc1C(O)CN1CCC2(CC1)CCN(C1=CS(=O)(=O)CC1)C2=O (centres unmarked) [Example 15] | 55.9 |
